Results reported in patent publication EP0452507A1, “MEDICINE COMPRISING TOCOPHERYL GLYCOSIDE AS ACTIVE INGREDIENT” (NIPPON HYPOX LABORATORIES INCORPORATED, priority 1989, dated 1991).

Assays:
[1] = system: stomach (mucosal ulcer in the glandular portion); type: in vivo, rats
Method: 15 male SD rats weighing 180 to 220 g were used. These rats were fasted for 24 hours, and separated to three groups each consisting of 5 rats.
Then, one group was used as Control group. A physiological saline solution of 10 % Nikkol was administered intraperitoneally, and the rats were sacrificed with ether 16 hours after the administration. The stomach of each rat was removed, and after 10 ml of physiological saline was injected into the stomachs, the stomachs were fixed by immersing them in a 1 % formalin for 10 minutes. Each stomach was dissected along the greater curvatura, and the length (mm) of mucosal ulcer which occurred in the glandular portion was measured under an anatomical microscope (x 10). The average of the ulcer lengths of the five rats was taken as an ulcer index.
One out of the remaining two groups was used as Example group @. The procedure for Control group was repeated except that a physiological saline solution of 10 % Nikkol containing VIE-MAN in place of the physiological saline solution of 10 % Nikkol was administered intraperitoneally in such a dose that the amount of VIE-MAN was 300 mg/kg, and the ulcer index was determined.
The remaining one group was used as Comparative Example group ⓘ. The procedure for Example group 17 was repeated except that a physiological saline solution of 10 % Nikkol containing indomethacin, which was a nonsteroidal anti-inflammatory preparation (antipyretic analgesic antiphlogistic preparation), in place of the physiological saline solution of 10 % Nikkol was administered intraperitoneally in such a dose that the amount of the indomethacin was 20 mg/kg, and the ulcer index was determined.

[2] = system: antigen-adjuvant-induced inflammation; test: antigen-adjuvant-induced inflammation, right hind paw swelling by volumetry; type: in vivo, rats; settings: for inhibition activity against antigen-adjuvant-induced inflammations / average of the swelling ratios: 10 mg/kg intraperitoneally; for average of the swelling ratios: 0.5 hour after administration of antigen and adjuvant, versus Control group
Method: At first, five groups each consisting of five SD male rats weighing 180 to 220 g (total 25 rats) were prepared, and each rat was measured for a size of the subplantar region of the right hind paw. As an antigen to cause an antigen-adjuvant-induced inflammation, 0.2 mg/rat of egg-white albumin was used. Further, as an immune aid (adjuvant), a mixture consisting of 4 mg/rat of aluminum hydroxide and 0.1 ml/rat of pertussis vaccine was prepared.
One out of the five groups was used as Control group. A physiological saline solution of 10 % Nikkol (trade name, dissolving aid, supplied by Nikko Chemical Co., Ltd.) was administered intraperitoneally to each rat, and 0.5 hour after the administration of the physiological saline solution of 10 % Nikkol, the above antigen and adjuvant were administered intracutaneously into the subplantar region of the right hind paw. Then, 0.5, 1, 2, 4, 6, 12 and 24 hours after the administration of the antigen and adjuvant, the swelling on the subplantar region of the right hind paw of each rat was measured by volumetry. And, the average of swelling ratios of the group in every measurement was determined on the basis of the measurement values of the sizes of subplantar regions of the right hind paws of the rats obtained before the administration of the physiological saline solution of 10 % Nikkol.
One of the remaining four groups was used as Example group @. A physiological saline solution of 10 % Nikkol containing VIE-MAN was administered intraperitoneally into each rat of this group in such a dose that the amount of VIE-MAN was 10 mg/kg, and 0.5 hours after the administration of the physiological saline solution of 10 % Nikkol containing VIE-MAN, the above antigen and adjuvant were administered intracutaneously into the subplantar region of the right hind paw. Thereafter, the swelling on the subplantar region of the right hind paw of each rat was measured in the same manner as that for Control group, and the average of swelling ratios of the group in every measurement was determined.
The same procedure as that for Example group ⑧ was carried out except that a physiological saline solution of 10 % Nikkol containing hydrocortisone which was an anti-inflammatory preparation (immunosuppressive preparation) in place of the physiological saline solution of 10 % Nikkol containing VIE-MAN was administered intraperitoneally in such a dose that the amount of the hydrocortisone was 10 mg/kg.
The same procedure as that for Example group ⑧ was carried out except that a physiological saline solution of 10 % Nikkol containing diphenhydramine which was an antihistamine preparation in place of the physiological saline solution of 10 % Nikkol containing VIE-MAN was administered intraperitoneally in such a dose that the amount of the diphenhydramine was 10 mg/kg.
The same procedure as that for Example group ⑧ was carried out except that a physiological saline solution of 10 % Nikkol containing indomethacin which was a nonsteroidal anti-inflammatory preparation (antipyretic analgesic antiphlogistic preparation) in place of the physiological saline solution of 10 % Nikkol containing VIE-MAN was administered intraperitoneally in such a dose that the amount of the indomethacin was 10 mg/kg.
At first, four groups each consisting of five male SD rats weighing 180 to 220 g (total 20 rats) were prepared, and each rat was measured for a size of the subplantar region of the right hind paw. As an antigen to cause an antigen- adjuvant-induced inflammation, 0.2 mg/rat of egg-white albumin was prepared. Further, as an immune aid (adjuvant), a mixture consisting of 4 mg/rat of aluminum hydroxide and 0.1 ml/rat of pertussis vaccine was prepared.
One out of the four groups was used an Control group, and the procedure for Control group in Example 4 was repeated to determine the average of the swelling ratios as a group unit.

Structure (SMILES): Cc1c(C)c2c(c(C)c1OC1OC(CO)C(O)C(O)C1O)CCC(C)(CCCC(C)CCCC(C)CCCC(C)C)O2 (racemic) [VIE-GLU, dl-α-tocopheryl-,8-D-glucoside]
- side effect on the digestive system ([1]; rat, in vivo): nearly similar results to that of the test on VIE-MAN
- inhibition activity against antigen-adjuvant-induced inflammations ([2]; Example 5, Fig. 4, 10 mg/kg): almost as superior as VIE-MAN
- average of the swelling ratios ([2]; Example 5, Fig. 4): significantly lower than that of the swelling ratios of Control group

Structure (SMILES): Cc1c(C)c2c(c(C)c1OC1OC(CO)C(O)C(O)C1O)CCC(C)(CCCC(C)CCCC(C)CCCC(C)C)O2 (racemic) [VIE-MAN, dl-a-tocopheryl-a-D-mannoside]
- mucosal ulcer (ulcer index) ([1]; rat, in vivo, ip, 300 mg/kg): no mucosal ulcer was observed
- inhibition activity against antigen-adjuvant-induced inflammations ([2]; Example 4, Fig. 3): excellent inhibition activity
- average of the swelling ratios ([2]; Example 4, Fig. 3): significantly lower than that of the swelling ratios of Control group

Structure (SMILES): COc1ccc2c(c1)c(CC(=O)O)c(C)n2C(=O)c1ccc(Cl)cc1 [indomethacin, reference compound]
- ulcer index ([1]; Example 8, Fig. 7, 20 mg/kg intraperitoneally, fasted rats, 16 hours after administration): about 30 mm
- inhibition activity against antigen-adjuvant-induced inflammations ([2]; Example 4, Fig. 3): significant inhibition activity at and after 2 hours
- inhibition activity against antigen-adjuvant-induced inflammation compared with VIE-MAN ([2]; Example 4, Fig. 3, both 10 mg/kg intraperitoneally): much lower than that of VIE-MAN
